In US12268757B2, “Cyclen based compounds, coordination compounds, peptides, pharmaceutical preparation, and use thereof” (USTAV ORGANICKE CHEMIE A BIOCHEMIE AV CR V.V.I., priority 2019, dated 2025):

Columns and labels:
[1] = Relaxivity of Gd(III) chelates; type: physicochemical
Procedure: Relaxivity of Gd(III) chelate Gd-6 and of a peptide Gly-Phe-(Gd-6)-Gly-NH2 have been measured at 40° C. and 0.5 T in 10 mM MOPS buffer pH=7.0. It is apparent from the data that the relaxivity of the peptide, where the Gd-6 is incorporated within the peptide chain, is higher than the relaxivity of a standalone Gd-6.

[2] = Kinetic inertness: acid-assisted decomplexation followed by HPLC; type: physicochemical; details: pH ~2.0, 40° C.; for Peak area of intact chelate: TFA 0.08%, UV 280 nm
Procedure: Stability (kinetic inertness) of the Gd(III) building block Gd-3 prepared in Example 4 was tested by following acid-assisted decomplexation by HPLC. Isocratic elution method was used for analysis. Constant concentration of TFA (0.08%) was maintained in the mobile phase (pH ˜2.0), while methanol content was varied to tune the retention time of the analyte. With increasing retention time (i.e. time spent in the acidic medium), more decomplexation should occur and the amount of intact chelate should decrease mono-exponentially (pseudo first-order reaction conditions), while a peak of free chelator should appear in the chromatogram. The HPLC conditions were as follows: column Kinetex C18, 100×3 mm, 2.6 um; column temperature maintained at 40° C.; mobile phase: TFA (constant 0.08% vol.), MeOH (variable), water; flow-rate 0.6 mL/min; UV detection at 280 nm; injection of 2 uL of 0.5 mM sample.

Gd(III) Complex of 2,2′,2″-(10-((2S,3S,4S)-2-carboxy-4-hydroxypyrrolidin-3-yl)-1,4,7,10-tetraazacyclododecane-1,4,7-triyl)triacetic acid [Gd-6]
Relaxivity r1 at 40° C., and 0.5 T ([1]; 10 mM MOPS buffer pH=7.0, calculated r1 = R1/c): 3.5 mM⁻¹ s⁻¹ | Relaxation time T1 ([1]; 40° C., 0.5 T, 10 mM MOPS buffer pH=7.0): 1562 ms

Gd(III) Complex of 2,2′,2″-(10-((2S,3S,4S)-1-(2-(9H-fluoren-9-yl)acetoxy)-2-carboxy-4-hydroxypyrrolidin-3-yl)-1,4,7,10-tetraazacyclododecane-1,4,7-triyl)triacetic acid [Gd-3]
Peak area of intact chelate ([2]; 36% methanol in mobile phase, retention time 6.894 min): 690.9 mAU · s | Peak area of intact chelate ([2]; 37% methanol in mobile phase, retention time 6.072 min): 686.6 mAU · s | Peak area of intact chelate ([2]; 38% methanol in mobile phase, retention time 5.570 min): 688.4 mAU · s | Peak area of intact chelate ([2]; 39% methanol in mobile phase, retention time 5.044 min): 685.5 mAU · s | Peak area of intact chelate ([2]; 40% methanol in mobile phase, retention time 4.632 min): 681.6 mAU · s | Stability (kinetic inertness) under acidic conditions ([2]; with increasing retention time in TFA 0.08% mobile phase): no decrease in the peak area
